Results on 38 compounds are retold here after patent publication US20060264419A1 (priority 2003, published 2006).

For orientation: IC50 means the concentration at which inhibition is half-maximal.

Sequence of 5-HT2A receptors (P14842 whole entry): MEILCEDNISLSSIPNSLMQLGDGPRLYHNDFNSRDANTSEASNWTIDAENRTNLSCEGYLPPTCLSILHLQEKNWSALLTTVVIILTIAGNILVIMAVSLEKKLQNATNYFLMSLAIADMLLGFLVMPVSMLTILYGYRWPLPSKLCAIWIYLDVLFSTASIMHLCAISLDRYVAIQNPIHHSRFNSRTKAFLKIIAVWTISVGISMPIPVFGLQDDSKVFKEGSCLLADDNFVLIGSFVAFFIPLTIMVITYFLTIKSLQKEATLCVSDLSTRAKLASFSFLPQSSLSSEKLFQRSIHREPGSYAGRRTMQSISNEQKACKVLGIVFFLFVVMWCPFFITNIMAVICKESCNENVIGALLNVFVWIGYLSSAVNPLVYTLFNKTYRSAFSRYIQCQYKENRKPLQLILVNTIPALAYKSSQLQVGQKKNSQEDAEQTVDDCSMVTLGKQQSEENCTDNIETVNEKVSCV

In one assay the target is 5-HT2A receptors (Rattus norvegicus, UniProt P14842). Description: in-vitro affinity to 5-HT2A receptors, displacement of [3H]ketanserine (Example A1). Type of assay: binding. The settings on record: read-out: HT2A IC50. From the text:
The 5-HT2A receptors are exposed both to [^3H]ketanserine (a substance which is known for its affinity to the receptor) and also to the test compound. The decrease in the affinity of [^3H]ketanserine to the receptor is an indication of the affinity of the test substance to the 5-HT2A receptor.
Background: Displacement assays read how much labelled ligand stays bound in the presence of the test substance.
For `OC1CCN(Cc2cnn(-c3ccc(-c4ccccc4)cc3)c2-c2ccccc2F)CC1` [Example 1053, 1-[1-Biphenyl-4-yl-5-(2-fluorophenyl)-1H-pyrazol-4-ylmethyl]piperidin-4-ol], the IC50 was 0.43 µM. As to `CN1CCN(Cc2cnn(-c3cccc(-c4ccc(Cl)cc4)c3)c2-c2ccccc2F)CC1` [Example 1049, 1-[1-(4′-Chlorobiphenyl-3-yl)-5-(2-fluoro-phenyl)-1H-pyrazol-4-ylmethyl]-4-methyl-piperazine], the IC50 is 0.39 µM.

On to `Fc1ccccc1-c1c(CN2CC=CC2)cnn1-c1ccc(-c2ccccc2)cc1` [Example 939, 1-Biphenyl-4-yl-4-(2,5-dihydropyrrol-1-yl-methyl)-5-(2-fluorophenyl)-1H-pyrazole], for which the IC50 is 0.036 µM. For `Cc1cccc(-c2c(CN3CCN(C)CC3)cnn2-c2ccc(-c3ccc(F)cc3)cc2)c1` [Example 940, 1-[1-(4′-Fluorobiphenyl-4-yl)-5-m-tolyl-1H-pyrazol-4-ylmethyl]-4-methylpiperazine], the half-inhibitory concentration (IC50) was determined as 0.037 µM. Consider `Fc1ccc(F)c(-c2ccc(-n3ncc(CNc4cc[nH]n4)c3-c3ccccc3F)cc2)c1` [Example 1005, [1-(2′,5′-Difluorobiphenyl-4-yl)-5-(2-fluoro-phenyl)-1H-pyrazol-4-ylmethyl]-(1H-pyrazol-3-yl)amine], for which the IC50 was 0.18 µM. On to `Fc1ccc(CCN2CCN(Cc3cnn(-c4ccccn4)c3-c3ccccc3F)CC2)cc1` [Example 950, 1-[2-(4-Fluorophenyl)ethyl]-4-[5-(2-fluoro-phenyl)-1-pyridin-2-yl-1H-pyrazol-4-ylmethyl]-piperazine], for which the IC50 amounted to 0.053 µM. Turning to `Fc1ccccc1-c1c(CNCc2cccnc2)cnn1-c1ccc(-c2ccccc2)cc1` [Example 1004, [1-Biphenyl-4-yl-5-(2-fluorophenyl)-1H-pyrazol-4-ylmethyl]pyridin-3-ylmethylamine], the IC50 amounted to 0.18 µM. The same measure, in the same setting: the same measure for `CCOC(=O)N1CCN(Cc2cnn(-c3ccc(-c4ccccc4)cc3)c2-c2ccccc2F)CC1` [Example 957, Ethyl 4-[1-biphenyl-4-yl-5-(2-fluoro-phenyl)-1H-pyrazol-4-ylmethyl]piperazine-1-carboxylate]: 0.058 µM; for `CN1CCN(Cc2cnn(-c3ccc(-c4ccc(F)cc4)cc3)c2-c2cnccn2)CC1` [Example 972, 2-[2-(4′-Fluorobiphenyl-4-yl)-4-(4-methyl-piperazin-1-ylmethyl)-2H-pyrazol-3-yl]-pyrazine]: 0.085 µM; for `N#CCNCc1cnn(-c2ccc(-c3ccccc3)cc2)c1-c1ccccc1F` [Example 1034, {[1-Biphenyl-4-yl-5-(2-fluorophenyl)-1H-pyrazol-4-ylmethyl]amino}acetonitrile]: 0.28 µM. As to `Fc1ccccc1-c1c(CNC2C3CNCC32)cnn1-c1ccc(-c2ccccc2)cc1` (centres unmarked) [Example 1041, (3-Azabicyclo[3.1.0]hex-6-yl)-[1-biphenyl-4-yl-5-(2-fluorophenyl)-1H-pyrazol-4-ylmethyl]-amine], the IC50 was determined as 0.32 µM.

Consider `N#CC(NCc1cnn(-c2ccc(-c3ccccc3)cc2)c1-c1ccccc1F)C(N)=O` (centres unmarked) [Example 987, 2-{[1-Biphenyl-4-yl-5-(2-fluorophenyl)-1H-pyrazol-4-ylmethyl]amino}-2-cyanoacetamide], for which the IC50 amounted to 0.13 µM.

With `Fc1ccccc1-c1c(CN2CCN(Cc3ccsc3)CC2)cnn1-c1ccc(-c2ccccc2)cc1` [Example 1047, 1-[1-Biphenyl-4-yl-5-(2-fluorophenyl)-1H-pyrazol-4-ylmethyl]-4-thiophen-3-ylmethyl-piperazine], the IC50 stood at 0.38 µM.

As for `CN1CCN(Cc2cnn(-c3ccc(-c4cccc(C#N)c4)cc3)c2-c2ccccc2F)CC1` [Example 993, 4′-[5-(2-Fluorophenyl)-4-(4-methylpiperazin-1-ylmethyl)pyrazol-1-yl]biphenyl-3-carbonitrile], the IC50 turned out to be 0.14 µM. `Fc1ccccc1-c1c(CNC2CCNCC2)cnn1-c1ccc(-c2ccccc2)cc1` [Example 1058, [1-Biphenyl-4-yl-5-(2-fluorophenyl)-1H-pyrazol-4-ylmethyl]piperidin-4-ylamine]: the IC50 amounted to 0.47 µM.

Turning to `Fc1ccccc1-c1c(CCCN2CCOCC2)cnn1-c1ccc(-c2ccccc2)cc1` [Example 917, 4-{3-[1-Biphenyl-4-yl-5-(2-fluoro-phenyl)-1H-pyrazol-4-yl]propyl}morpholine], the IC50 worked out at 0.023 µM.

The assay is the same for the next values; noted with them: target not given; description names affinity to 5-HT2A receptors; read-out: IC50.
Consider `Fc1ccccc1-c1c(CNC2CCNCC2)cnn1-c1ccc(-c2ccccc2)cc1` [(74), [1-Biphenyl-4-yl-5-(2-fluorophenyl)-1H-pyrazol-4-ylmethyl]-piperidin-4-ylamine], for which the IC50 worked out at 0.47 µM. For the compound `Fc1ccccc1-c1c(CCN2CCOCC2)cnn1-c1ccc(-c2ccccc2)cc1` [(185), 4-{2-[1-Biphenyl-4-yl-5-(2-fluorophenyl)-1H-pyrazol-4-yl]ethyl}morpholine], the IC50 was determined as 0.04 µM. For `Fc1ccccc1-c1c(CCCN2CCOCC2)cnn1-c1ccc(-c2ccccc2)cc1` [(47), 4-{3-[1-Biphenyl-4-yl-5-(2-fluorophenyl)-1H-pyrazol-4-yl]propyl}morpholine], the IC50 is 0.023 µM. On the same count and under the same terms, the figure for `Fc1ccccc1-c1c(CN2CCN(Cc3ccsc3)CC2)cnn1-c1ccc(-c2ccccc2)cc1` [(135), 1-[1-Biphenyl-4-yl-5-(2-florophenyl)-1H-pyrazol-4-ylmethyl]-4-thiophen-3-ylmethylpiperazine] is 0.38 µM.

For the compound `CN1CCN(Cc2cnn(-c3ccc(-c4ccsc4)cc3)c2-c2ccccc2F)CC1` [(66), 1-[5-(2-Fluorophenyl)-1-(4-thiophen-3-ylphenyl)-1H-pyrazol-4-ylmethyl]-4-methylpiperazine], the IC50 amounted to 0.014 µM. Same read-out and setting: the figure for `CC(C)(C)OC(=O)N1CCC(NCc2cnn(-c3ccc(-c4ccccc4)cc3)c2-c2ccccc2F)C1` (centres unmarked) [(176), tert-Butyl 3-{[1-biphenyl-4-yl-5-(2-fluorophenyl)-1H-pyrazol-4-ylmethyl]amino}pyrrolidine-1-carboxylate] is 0.46 µM; for `O=C(Nc1ccccc1)N1CCN(Cc2cnn(-c3ccc(-c4ccccc4)cc3)c2-c2ccccc2F)CC1` [(126), N-Phenyl-4-[1-biphenyl-4-yl-5-(2-fluorophenyl)-1H-pyrazol-4-ylmethyl]piperazine-1-carboxamide] it is 0.79 µM. `CN(C)Cc1cnn(-c2ccc(-c3ccccc3)cc2)c1-c1ccccc1F` [(34), [1-Biphenyl-4-yl-5-(2-fluorophenyl)-1H-pyrazol-4-ylmethyl]-dimethylamine]: the IC50 was found to be 0.021 µM. With `Fc1ccc(F)c(-c2ccc(-n3ncc(CNCC4CCCO4)c3-c3ccccc3F)cc2)c1` (centres unmarked) [(122), [1-(2′,5′-Difluorobiphenyl-4-yl)-5-(2-fluorophenyl)-1H-pyrazol-4-ylmethyl](tetrahydrofuran-2-ylmethyl)amine], the IC50 was 0.37 µM. For `O=C1NCN(c2ccccc2)C12CCN(Cc1cnn(-c3ccc(-c4ccccc4)cc3)c1-c1ccccc1F)CC2` [(94), 8-[1-Biphenyl-4-yl-5-(2-fluorophenyl)-1H-pyrazol-4-ylmethyl]-1-phenyl-1,3,8-triazaspiro[4.5]decan-4-one], the IC50 stood at 0.4 µM. Regarding `c1ccc(-c2ccc(-n3ncc(CN4CCNCC4)c3-c3ccccn3)cc2)cc1` [(60), 1-(1-Biphenyl-4-yl-5-pyridin-2-yl-1H-pyrazol-4-ylmethyl)-piperazine], the IC50 stood at 0.2 µM.

As for `O=c1ccccn1Cc1cnn(-c2ccc(-c3ccccc3)cc2)c1-c1ccccc1F` [(191), 1-[1-Biphenyl-4-yl-5-(2-fluorophenyl)-1H-pyrazol-4-ylmethyl]-1H-pyridin-2-one], the IC50 is 0.2 µM. Same read-out and setting: the same measure for `CCN1CCCC1CNCc1cnn(-c2ccc(-c3ccccc3)cc2)c1-c1ccccc1F` (centres unmarked) [(88), [1-Biphenyl-4-yl-5-(2-fluorophenyl)-1H-pyrazol-4-ylmethyl]-(1-ethylpyrrolidin-2-ylmethyl)amine]: 0.02 µM; for `CS(=O)(=O)N1CCN(Cc2cnn(-c3ccc(-c4ccccc4)cc3)c2-c2ccccc2F)CC1` [(123), 1-[1-Biphenyl-4-yl-5-(2-fluorophenyl)-1H-pyrazol-4-ylmethyl]-4-methanesulfonylpiperazine]: 0.83 µM.

Consider `Nc1ncc(NCc2cnn(-c3ccc(-c4ccc(F)cc4)nc3)c2-c2ccccc2F)cn1` [(197)], for which the IC50 was 1.3 µM. For `CN1CCN(Cc2cnn(-c3ccc(-c4cc(F)ccc4F)cc3)c2-c2ccccc2)CC1` [(68), 1-[1-(2′,5′-Difluorobiphenyl-4-yl)-5-phenyl-1H-pyrazol-4-ylmethyl]-4-methylpiperazine], the IC50 turned out to be 0.11 µM. For `N#CCNCc1cnn(-c2ccc(-c3ccccc3)cc2)c1-c1ccccc1F` [(124), {[1-Biphenyl-4-yl-5-(2-fluorophenyl)-1H-pyrazol-4-ylmethyl]-amino}acetonitrile], the IC50 worked out at 0.28 µM.

With `CCOC(=O)CNCc1cnn(-c2ccc(-c3ccccc3F)nc2)c1-c1ccccc1F` [(148), Ethyl ({5-(2-fluorophenyl)-1-[6-(2-fluorophenyl)pyridin-3-yl]-1H-pyrazol-4-ylmethyl}amino)acetate], the IC50 turned out to be 1.6 µM.

`Cc1cc(CNCc2cnn(-c3ccc(-c4ccccc4)cc3)c2-c2ccccc2)no1` [(181), (1-Biphenyl-4-yl-5-phenyl-1H-pyrazol-4-ylmethyl)-(5-methylisoxazol-3-ylmethyl)amine]: the IC50 turned out to be 0.24 µM.

Regarding `CN1CCC(N(C)Cc2cnn(-c3ccc(-c4ccccc4)cc3)c2-c2ccccc2F)CC1` [(39), [1-Biphenyl-4-yl-5-(2-fluorophenyl)-1H-pyrazol-4-ylmethyl]-methyl-(1-methylpiperidin-4-yl)amine], the IC50 was found to be 0.16 µM. For `CN1CCN(Cc2cnn(-c3ccc(-c4ccsc4)cc3)c2-c2ccc(F)cc2)CC1` [(102), 1-[5-(4-Fluorophenyl)-1-(4-thiophen-3-ylphenyl)-1H-pyrazol-4-ylmethyl]-4-methylpiperazine], the IC50 came to 1.1 µM. As to `CN(CC(N)=O)Cc1cnn(-c2ccc(-c3ccccc3)cc2)c1-c1ccccc1F` [(132), 2-{[1-Biphenyl-4-yl-5-(2-fluorophenyl)-1H-pyrazol-4-ylmethyl]-methylamino}acetamide], the half-inhibitory concentration (IC50) turned out to be 0.92 µM.
